Tests used:
[1] = Solubility; assay type: physicochemical
[2] = target: T1, aryl hydrocarbon receptor (AhR) (Mus musculus, UniProt P30561); experiment: ITE biological activity: AhRR gene expression in BMDCs by qPCR; assay type: cell-based; conditions: 24 h, 14 μmol·L^−1 ITE or equivalent amount as NPs
T1 sequence (P30561 10-848): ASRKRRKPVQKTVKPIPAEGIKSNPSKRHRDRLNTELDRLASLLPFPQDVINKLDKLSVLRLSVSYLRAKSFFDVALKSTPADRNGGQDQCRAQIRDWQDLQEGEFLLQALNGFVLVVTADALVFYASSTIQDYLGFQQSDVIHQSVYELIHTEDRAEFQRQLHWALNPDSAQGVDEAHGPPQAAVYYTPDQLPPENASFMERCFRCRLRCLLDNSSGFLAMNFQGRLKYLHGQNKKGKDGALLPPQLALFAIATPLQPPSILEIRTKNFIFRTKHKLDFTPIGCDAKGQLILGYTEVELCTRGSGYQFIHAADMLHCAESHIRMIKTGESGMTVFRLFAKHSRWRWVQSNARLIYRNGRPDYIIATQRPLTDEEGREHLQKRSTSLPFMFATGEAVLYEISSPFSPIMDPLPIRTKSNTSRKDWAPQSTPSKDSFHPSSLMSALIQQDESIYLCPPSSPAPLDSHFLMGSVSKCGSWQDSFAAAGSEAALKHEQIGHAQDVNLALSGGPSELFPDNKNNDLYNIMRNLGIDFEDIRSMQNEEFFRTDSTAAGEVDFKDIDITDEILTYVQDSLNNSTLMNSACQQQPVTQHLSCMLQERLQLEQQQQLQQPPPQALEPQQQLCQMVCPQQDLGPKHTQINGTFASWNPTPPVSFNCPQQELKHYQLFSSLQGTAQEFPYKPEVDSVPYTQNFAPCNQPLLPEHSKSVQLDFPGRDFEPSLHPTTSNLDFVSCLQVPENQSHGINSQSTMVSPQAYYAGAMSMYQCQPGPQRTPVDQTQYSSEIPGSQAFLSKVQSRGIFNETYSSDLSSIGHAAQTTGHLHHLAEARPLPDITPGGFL
Protocol: Mouse bone marrow dendritic cells: BMDCs were prepared from progenitor cells isolated from the femurs and tibias of female mice between 8 and 10 wk of age, as previously described in Inaba et al. (“Generation of large numbers of dendritic cells from mouse bone marrow cultures supplemented with granulocyte/macrophage colony-stimulating factor”; J Exp Med 1992, 176 (6), 1693-702). Bone marrow cells were plated on 15 cm petri dishes cell culture for a final volume of 20 mL per plate in Iscove's Modified Dulbecco's Medium (IMDM) containing 10% FCS, penicillin/streptomycin 100 μg/ml, L-Glutamine 2 mmol.L^−1 and β-mercapthoethanol 50 μmol.L^−1, and supplemented with 10 ng/ml murine GM-CSF (R&D Systems) for 8 days. Half of the medium was replaced on day 4 of culture.
ITE biological activity. On day 7 of BMDC culture, cells were incubated 24 h with 14 μmol·L^−1 ITE in 0.2% DMSO and equivalent amount of ITE as USPIO-PEG-ITE NPs in water. On day 8, total RNA was prepared by the RNAspin mini kit (GE Healthcare). cDNA was obtained using the RevertAid RT Reverse Transcription Kit (Thermo Scientific) with 1 μg of total RNA. Quantitative PCR (qPCR) was performed with the SYBR Green method using Takyon ROX qPCR SYBR MasterMix blue dTTP (Eurogentec).

[3] = Quantification of NP uptake in organs by VSM magnetometry; assay type: in vivo, NOD and B6 mice
Protocol: For mechanistic studies, MRI and histological studies, 3 B6 mice/time points aged 10 and 12 weeks were used as control. 3 Female NOD mice/time points were used as pre-diabetic mice between 10 and 12 weeks of age. NPs were administrated intravenously (i.v.) as a bolus of 200 μmolFe/kg diluted in 200 μL of vehicle (NaCl 0.9%/Glucose 5%).
Quantification of NP uptake in organs by VSM: Pancreas, lung, liver, spleen, kidneys and PLN were collected 1 h, 5 h, 24 h, 48 h and 72 h after intravenous injection of USPIO-PEG-ITE-P3UMPI (200 μmolFe/kg) or vehicle (NaCl 0.9%/Glucose 5%) in NOD and B6 mice. Collected organs were frozen in liquid nitrogen, lyophilized and ground to a powder using a mortar and pestle. Sample magnetism was analyzed by a VSM (VSM Quantum Design, Versalab) at room temperature. Amount of iron per organ was calculated from the NP magnetization at saturation (expressed in emu/g of iron).

COC(=O)c1csc(C(=O)c2c[nH]c3ccccc23)n1 [ITE, 2-(1′H-indole-3′-carbonyl)-thiazole-4-carboxylic acid methyl ester]
Solubility [1]: soluble only in DMSO and ethanol | AhRR expression [2]: induced | Estimation of drug dose released in pancreas: ITE ([3]; B6 mice, 1 H after iv injection of USPIO-PEG-ITE-P3UmPI, considering no drug release before pancreas targeting): 0.39 mmol | Estimation of drug dose released in pancreas: ITE ([3]; B6 mice, 5 H after iv injection): 0.99 mmol | Estimation of drug dose released in pancreas: ITE ([3]; B6 mice, 24 H after iv injection): 0 mmol | Estimation of drug dose released in pancreas: ITE ([3]; B6 mice, 48 H after iv injection): 0.15 mmol | Estimation of drug dose released in pancreas: ITE ([3]; B6 mice, 72 H after iv injection): 0.33 mmol | Estimation of drug dose released in pancreas: ITE ([3]; NOD mice, 1 H after iv injection): 1.54 mmol | Estimation of drug dose released in pancreas: ITE ([3]; NOD mice, 5 H after iv injection): 2.98 mmol | Estimation of drug dose released in pancreas: ITE ([3]; NOD mice, 24 H after iv injection): 0.37 mmol | Estimation of drug dose released in pancreas: ITE ([3]; NOD mice, 48 H after iv injection): 1.78 mmol | Estimation of drug dose released in pancreas: ITE ([3]; NOD mice, 72 H after iv injection): 0.91 mmol
